Measured values reported in PMC9145755, “A Small Peptide Increases Drug Delivery in Human Melanoma Cells” (Pharmaceutics, 2022).
One block for each compound: values may come before it. Where a SMILES comes first, the peptide text is derived from it. [ ]: non-standard residue; d: D form. Nle = CCCC[C@H](N)C(=O)O

Key:
[1] = system: athymic nude mice bearing human melanoma A375 tumors; experiment: In vivo and ex vivo imaging (biodistribution) in mice bearing A375 tumors; details: 8 µg per mouse
Experimental: The study was carried out in compliance with Animal Research: Reporting of In Vivo Experiments (ARRIVE) guidelines. All the animal procedures were approved by the Institutional Animal Care and Use Committee (IACUC) at Chapman University and conducted in compliance with the policies of Chapman University, in addition to those of federal, state, and local animal welfare authorities. Male and female athymic nude mice (4–6 weeks old) were kept (5 in each cage) in a pathogen-free environment. Approximately 1 million human melanoma A375 cells (0.1 mL in normal saline), mixed with 0.1 mL cold Matrigel (#354248; Corning, Corning, NY, USA), were injected subcutaneously into the flank. The tumor size was measured with a caliper, and body weight was recorded once a week. When the tumor size reached approximately 800–1000 mm^3, as calculated using the following formula: [Length × (Width^2)]/2 (in mm), mice were processed for in vivo or ex vivo imaging.
For in vivo imaging, normal saline or VivoTag-KK-11 at a dose of 8 µg per mouse was injected into the mice via the tail vein (n = 2 for each time point). The animals were then scanned at different time intervals (0.5, 2, 6, and 24 h) using an IVIS Spectrum in vivo imaging system (PerkinElmer, Waltham, MA, USA). The mice were imaged for 0.5 s, 10 bin, level B at an emission wavelength of 688 ± 5 nm. Imaging was limited to no more than once a day and was conducted under continuously maintained isoflurane. Mice were maintained on alfalfa-free diets to minimize the background fluorescence. All the study animals survived through the in vivo imaging procedure.
For ex vivo imaging at defined time intervals (5, 15, 30 min, followed by 1, 1.5, 2, 3, 4, 6, 24, and 48 h) following fluorescence conjugate injection, animals were euthanized via carbon dioxide inhalation (n = 2 for each time point); tumor, liver, spleen, heart, lungs, brain, and kidneys were collected and briefly rinsed with saline. The organs were then imaged for 0.5 s, 10 bin, level B at an emission wavelength of 688 ± 5 nm using an IVIS Spectrum imaging system.

[2] = Serum stability (human serum, RP-HPLC); type: in vitro ADME; details: human serum incubation, 37 °C, data not shown
Experimental: Human serum (250 µL) was thawed to room temperature and was added to DMEM media (650 µL). The mixture was kept in a 37 °C incubator to mimic human body temperature for 15 min. The peptide (100 µL, 1 mM) was dissolved (dispersed) in sterile water. The peptide solution was added to the pre-warmed human serum and DMEM mixture. The mixture was incubated at 37 °C. At different time points (0, 0.5, 1, 5, and 24 h) aliquots (100 µL) were removed and added to methanol (200 µL). Each time point sample was kept at 4 °C for 5 min, and then was centrifuged at 500× g for 15 min to separate serum proteins. The supernatant was injected into the RP-HPLC, and the major peaks were collected. The peak’s mass was determined using MALDI-TOF mass analysis. The serum stabilities of the D-aa KK-11 were determined by comparing the HPLC peaks (AUC) for the intact peptides at different time points.

A375 melanoma cells [3] = experiment: In vitro cytotoxicity, MTT colorimetric assay; type: cell-based, human
Experimental: Cells were seeded in a 96-well plate and allowed to adhere overnight prior to adding the compound [29]. After 72 h of treatment in serum-free media, an MTT solution was added to each well to give a final concentration of 0.5 mg/mL and was incubated for 3 h. Formed crystals were solubilized, and their absorbance was measured at 595 nm.

[4] = system: A375 human melanoma xenograft; experiment: In vivo xenograft melanoma mouse model; details: KK-11 alone, in vivo studies
Experimental: The study was carried out in compliance with the ARRIVE guidelines. All the animal studies and procedures were approved by the IACUC at Chapman University and conducted in compliance with the policies of Chapman University, in addition to those of federal, state, and local animal welfare authorities. Nude mice (NU/NU) were purchased from Charles River (Wilmington, MA, USA) and were housed and maintained in the Chapman University vivarium under pathogen-free conditions. A375 cells were suspended in cold Matrigel and injected subcutaneously into the flank of each mouse (1 × 10^6 cells per mouse) to establish tumors. The mice were treated by tail vein injections of 1× PBS, D-aa KK-11 alone (1.75 mg/kg), MAC-3-190 (5 mg/kg) alone, or D-aa KK-11 and MAC-3-190 co-treatment for 21 days. For the co-treatment, the solution of D-aa KK-11 and MAC-3-190 (1:11 molar ratio) was mixed gently and incubated at room temperature for 30 min before tail vein injection. The growth of the tumors was monitored three times a week and measured using digital Vernier calipers. The tumor volume (mm^3) was calculated as [Length × (Width^2)]/2 (in mm). The mice were sacrificed after 21 days per IACUC policy when the control group’s average tumor size reached 2000 mm^3. Tumor xenografts were removed and weighed.

[5] = system: human melanoma cells (wm3211, Sk-mel-28, A375); experiment: In vitro cellular uptake of FITC-labeled peptides by flow cytometry; type: cell-based; details: FITC-labeled peptides 0.5 and 1 µM, A375, Sk-mel-28, wm3211, compared with FITC alone
Experimental: The peptide (FITC-labeled) concentration was determined using a Shimadzu BioSpec-nano Micro-volume UV-Vis spectrophotometer (Shimadzu, Kyoto, Japan). Human melanoma cells (wm3211, Sk-mel-28, and A375) were incubated with FITC or FITC-labeled peptides at final concentrations of 0.5 µM and 1 µM for 2 h. After thorough washing with cold 1× PBS, the melanoma cells in a single cell suspension were collected for flow cytometry analysis (BD FACSVerse, BD Biosciences, Franklin Lakes, NJ, USA). The mean fluorescence density of 10,000 cells was analyzed and compared to that of control cells, as described previously.

A375 melanoma cells [6] = experiment: Fluorescence microscopy of peptide uptake; type: cell-based, human; details: 0.5 µM, 30 min incubation, confocal microscopy, DAPI nuclei
Experimental: A375 melanoma cells were plated on coverslips and allowed to adhere overnight to 75% confluence, then incubated with 0.5 µM of FITC-KK-11 for 30 min at room temperature. After treatment, cells were washed three times in 1× PBS then fixed with 4% formaldehyde in 1× PBS for 15 min at room temperature. Fixed cells were then washed three times in 1× PBS for 5 min each, followed by curing in the dark with ProLong™ Gold Antifade Mountant with DAPI (P36935, Life Technologies Corporation, Eugene, OR, USA) for 1 h. Slides were visualized and recorded using the Nikon Eclipse Ti2-E confocal microscopy system (Nikon, Melville, NY, USA) using green and blue filters with 60× magnification.

Compound: VivoTag-Aβ-VPWxEPAYQrFL [VivoTag-KK-11, VivoTag 680 XL labeled D-amino acid analogue of KK-11]
Time post injection up to which fluorescence remained detectable in tumor xenografts, ex vivo imaging ([1]; IV tail vein, A375 xenograft nude mice, excised tumors, IVIS, n = 2 per time point): 24 h
Time after injection by which the peptide distributed to the tumor (and lungs, heart, spleen), ex vivo imaging ([1]; tail vein, A375 xenograft nude mice, IVIS, n = 2 per time point): ≤ 5 min
Brain penetration ([1]; tail vein, ex vivo organ imaging): no brain penetration was observed
Time after injection by which the peptide cleared from other organs ([1]; tail vein, ex vivo organ imaging (lungs, heart, spleen)): ≤ 6 h
Time after injection up to which the peptide was predominantly detected in kidneys ([1]; tail vein, ex vivo organ imaging, after 6 h): 48 h

Time to undetectable level of intact peptide in human serum [2]: ≤ 30 min
Compound: CCCC[C@H](NC(=O)[C@H](Cc1c[nH]c2ccccc12)NC(=O)[C@@H]1CCCN1C(=O)[C@@H](N)C(C)C)C(=O)N[C@@H](CCC(=O)O)C(=O)N1CCC[C@H]1C(=O)N[C@@H](C)C(=O)N[C@@H](Cc1ccc(O)cc1)C(=O)N[C@@H](CCC(N)=O)C(=O)N[C@@H](CCCNC(=N)N)C(=O)N[C@@H](Cc1ccccc1)C(=O)N[C@@H](CC(C)C)C(N)=O [KK-11] (H-VPW[Nle]EPAYQRFL-NH2)
Enhancement of MAC-3-190 cytotoxicity by KK-11 co-treatment (A375 melanoma cells [3]; A375, KK-11 1 µM with MAC-3-190 at 25% IC50, 50% IC50, IC50 and 2× IC50, 72 h, MTT, vs MAC-3-190 alone): did not observe any significant enhancement of cytotoxicity
Effect of sequential KK-11 then DOX treatment on DOX cytotoxicity (A375 melanoma cells [3]; A375, pretreated with KK-11 for 4 h, washed away, then DOX 72 h, MTT): failed to produce any changes on DOX cytotoxicity
Cytotoxicity of peptide alone, in vitro (A375 melanoma cells [3]; KK-11 alone, in vitro studies): No cytotoxicity
Cytotoxicity of peptide alone, in vivo [4]: No cytotoxicity

Compound: FITC-Aβ-VPWXEPAYQRFL [FITC-KK-11, KK-11 labeled with FITC at the N-terminus via β-alanine spacer]
Uptake of FITC-labeled peptide by melanoma cells [5]: highest
Cellular localisation of FITC-labeled peptide (A375 melanoma cells [6]): present in the cytoplasm

Compound: COc1cccc2c1C(=O)c1c(O)c3c(c(O)c1C2=O)C[C@@](O)(C(=O)CO)C[C@@H]3O[C@H]1C[C@H](N)[C@H](O)[C@H](C)O1 [DOX, doxorubicin, reference compound]
Cell viability, % of control (A375 melanoma cells [3]; A375, DOX 0.5 µM alone, 72 h, serum-free media, MTT): 62 % of control
Cell viability (cells survived), % of control (A375 melanoma cells [3]; A375, DOX 1 µM alone, 72 h, MTT): 24%
